From article PMC9060465 (Proceedings of the National Academy of Sciences of the …, 2022)
pEC50: −log10 of the molar value. Where a SMILES comes first, the peptide text is derived from it. [ ]: non-standard residue; d: D form. Aib = CC(C)(N)C(=O)O

Columns and labels:
[1] = biological target: T1, GLP-1R (Homo sapiens, UniProt P43220); test: Ligand-induced GLP-1R internalization, SNAP-GLP-1R HEK293 cells; format: cell-based
Target sequence in this assay (P43220 24-463): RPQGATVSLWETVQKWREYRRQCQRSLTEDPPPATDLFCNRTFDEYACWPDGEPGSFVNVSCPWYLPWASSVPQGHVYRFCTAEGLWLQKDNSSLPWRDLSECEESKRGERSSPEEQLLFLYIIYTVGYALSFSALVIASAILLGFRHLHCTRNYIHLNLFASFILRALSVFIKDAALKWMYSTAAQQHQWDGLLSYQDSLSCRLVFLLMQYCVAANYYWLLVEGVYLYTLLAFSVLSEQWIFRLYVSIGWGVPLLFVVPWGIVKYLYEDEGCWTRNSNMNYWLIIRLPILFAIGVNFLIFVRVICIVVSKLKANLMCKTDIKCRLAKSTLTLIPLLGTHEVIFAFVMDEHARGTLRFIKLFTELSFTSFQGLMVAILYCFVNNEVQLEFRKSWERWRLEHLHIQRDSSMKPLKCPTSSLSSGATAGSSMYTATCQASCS

[2] = biological target: T2, human GIPR (Homo sapiens, UniProt P48546); test: GIPR low density cAMP accumulation in HEK293 cells; format: cell-based
T2 construct: expressed in transfected cells; host or cells: HEK293
T2 sequence (P48546 22-466): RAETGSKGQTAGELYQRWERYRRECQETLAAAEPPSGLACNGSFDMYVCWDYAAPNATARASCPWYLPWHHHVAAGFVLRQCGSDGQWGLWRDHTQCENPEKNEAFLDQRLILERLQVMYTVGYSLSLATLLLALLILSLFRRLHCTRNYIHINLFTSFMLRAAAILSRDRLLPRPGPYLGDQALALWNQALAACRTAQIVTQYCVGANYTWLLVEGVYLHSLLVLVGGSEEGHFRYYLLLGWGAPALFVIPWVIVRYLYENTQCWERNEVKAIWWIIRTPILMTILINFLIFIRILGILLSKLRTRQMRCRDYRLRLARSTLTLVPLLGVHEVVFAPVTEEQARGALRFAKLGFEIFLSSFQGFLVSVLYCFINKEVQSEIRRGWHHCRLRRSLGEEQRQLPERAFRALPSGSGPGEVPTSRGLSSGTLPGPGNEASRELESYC
Procedure: (§1) Fig. 4. […] (B) Ligand-induced GTPγS binding of Gαs was performed using the GIPR-expressing membranes. […] (C) Agonist-stimulated cAMP production was measured in human GIPR expressing HEK293 cells. […] (E) Ligand-induced GTPγS binding of Gαs was performed using the GLP-1R-expressing membranes. […] (F) Agonist-stimulated cAMP production was measured in human GLP-1R-expressing HEK293 cells. […] Data presented are representative of n ≥ 3 independent experiments. Summarized data are shown in SI Appendix, Table 2. log M; log Molar.
(§2) We note that the albumin-binding propensity of fatty acid-modified peptides can confound a pharmacological comparison of molecules, given the common use of albumin and serum as nonspecific blocking agents in biological assays. Therefore, to obviate this, entirely albumin-free assays supplemented with bovine casein or bacitracin were used to prevent nonspecific binding ([10]).
(§3) Functional potency (EC50)
(§4) and efficacy (% Top) of ligands to induce Gα s -GTPγS binding and cAMP accumulation in HEK293 cells expressing GIPR were determined. The equilibrium affinity (KD) of
(§5) ligands for the immobilized ectodomain of the GIPR were quantified by surface plasmon resonance. […]
(§6) SPR data were analyzed using T200 evaluation software (Cytiva). All data are presented as geometric means with SEM and n values
(§7) according to established practices. ND, not determined. NA, not applicable.

[3] = biological target: T1, GLP-1R; test: GLP-1R Gαs [35S]GTPγS binding, GLP-1R-expressing membranes; format: biochemical; parameters: expressed in transfected cells; host or cells: HEK293
Procedure: as §1
as §2, with “([10]). […]” for “([10]).”
(§8) Middle Panel: The affinity (Ki) of ligands for the GLP-1R was […]
(§9) Functional potency (EC50) and efficacy (% Top) of ligands to induce Gα s-GTPγS binding and cAMP accumulation in HEK293 cells expressing GLP-1R were determined. The equilibrium affinity (KD) of ligands for the immobilized ectodomain of the GLP-1R were quantified by surface plasmon resonance. […]
(§10) SPR data were analyzed using T200 evaluation software (Cytiva). All data are presented as geometric means with SEM and n values according to established practices. ND, not determined. NA, not applicable.
Target sequence in this assay (P43220 24-463): as the sequence (P43220 24-463) above

[4] = biological target: T1, GLP-1R; test: GLP-1R low density cAMP accumulation in HEK293 cells; format: cell-based; parameters: expressed in transfected cells; host or cells: HEK293
Procedure: as §1
as §2, with “([10]). […]” for “([10]).”
as §8, §9, §10
Target sequence in this assay (P43220 24-463): as the sequence (P43220 24-463) above

[5] = biological target: T2, human GIPR; test: GIPR Gαs [35S]GTPγS binding, GIPR-expressing membranes; format: biochemical
Procedure: as §1, §2, §3, §4, §5, §6, §7

[6] = biological target: T1, GLP-1R; test: GRK2 recruitment to the GLP-1R, NanoBRET; format: cell-based; parameters: expressed in transfected cells; host or cells: freestyle HEK cells
Procedure: After 48 h, transfected cells were incubated in phosphate-buffered saline (PBS) containing 0.1% (wt/vol) bovine casein and varying concentrations of the ligands. […]
The potency (EC50) and efficacy (% Top) for ligands to induce GLP-1R Internalization were
determined using diffusion-enhanced resonance energy transfer.
relative efficacy for NanoBRET assays. SPR data were analyzed using T200 evaluation software (Cytiva). All data are presented as geometric means with SEM and n values
as §7
Target sequence in this assay (P43220 24-463): as the sequence (P43220 24-463) above
Target sequence in this assay (P25098 whole entry partner): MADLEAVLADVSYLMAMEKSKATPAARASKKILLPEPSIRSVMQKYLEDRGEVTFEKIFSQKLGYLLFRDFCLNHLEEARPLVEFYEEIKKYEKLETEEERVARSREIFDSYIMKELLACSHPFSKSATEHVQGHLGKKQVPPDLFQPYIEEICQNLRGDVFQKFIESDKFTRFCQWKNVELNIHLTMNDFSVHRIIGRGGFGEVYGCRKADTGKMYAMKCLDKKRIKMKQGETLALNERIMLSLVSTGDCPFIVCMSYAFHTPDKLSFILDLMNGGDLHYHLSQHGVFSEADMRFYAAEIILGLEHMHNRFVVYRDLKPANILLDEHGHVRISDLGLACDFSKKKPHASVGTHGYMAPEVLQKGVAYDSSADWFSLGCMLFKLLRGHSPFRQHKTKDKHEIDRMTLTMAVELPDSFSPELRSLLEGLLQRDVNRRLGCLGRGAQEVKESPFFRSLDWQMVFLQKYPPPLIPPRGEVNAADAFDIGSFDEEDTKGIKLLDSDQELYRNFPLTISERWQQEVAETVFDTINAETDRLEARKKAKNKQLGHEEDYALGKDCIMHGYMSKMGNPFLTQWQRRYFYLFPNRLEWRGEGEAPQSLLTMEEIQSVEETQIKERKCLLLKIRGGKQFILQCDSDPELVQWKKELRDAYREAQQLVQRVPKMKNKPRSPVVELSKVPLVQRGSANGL

[7] = biological target: T1, GLP-1R; test: β-arrestin 1 recruitment to the GLP-1R, NanoBRET; format: cell-based; parameters: expressed in transfected cells; conditions: efficacy (% Top), relative efficacy to GLP-1; (SEM)
Procedure: Functional potency (EC50) […]
and efficacy (% Top) of ligands to induce Gα s -GTPγS binding and cAMP accumulation in HEK293 cells expressing GIPR were determined. The equilibrium affinity (KD) of ligands for the immobilized ectodomain of the GIPR were quantified by surface plasmon resonance. Middle Panel: The affinity (Ki) of ligands for the GLP-1R was […]
as §9
(§11) recruitment to the GLP-1R were determined using the NanoBRET approach. The potency (EC50) and efficacy (% Top) for ligands to induce GLP-1R Internalization were determined using diffusion-enhanced resonance energy transfer. […]
relative efficacy for NanoBRET assays. SPR data were analyzed using T200 evaluation software (Cytiva). All data are presented as geometric means with SEM and n values according to established practices. ND, not determined. NA, not applicable.
Target sequence in this assay (P43220 24-463): as the sequence (P43220 24-463) above
Target sequence in this assay (P49407 whole entry partner): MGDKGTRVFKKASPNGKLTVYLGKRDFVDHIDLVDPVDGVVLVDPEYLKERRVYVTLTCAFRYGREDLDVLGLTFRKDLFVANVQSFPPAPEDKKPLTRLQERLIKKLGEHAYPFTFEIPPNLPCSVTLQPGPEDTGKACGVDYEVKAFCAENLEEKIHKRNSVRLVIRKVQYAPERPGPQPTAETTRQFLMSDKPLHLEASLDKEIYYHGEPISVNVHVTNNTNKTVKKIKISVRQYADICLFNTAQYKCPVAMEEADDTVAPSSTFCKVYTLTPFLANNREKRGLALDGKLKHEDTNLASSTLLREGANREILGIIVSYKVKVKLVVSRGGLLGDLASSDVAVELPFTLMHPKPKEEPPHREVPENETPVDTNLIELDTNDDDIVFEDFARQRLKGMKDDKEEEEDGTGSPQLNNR

[8] = biological target: T3, ECD of human GLP-1R (amino acids 24 to 145) (Homo sapiens, UniProt P43220); test: GLP-1R extracellular domain binding by surface plasmon resonance; conditions: SPR, 1:1 kinetic binding model; representative of n=3
T3 construct: GLP-1R (amino acids 24 to 145); 6His; made in house; host or cells: CHO cells
T3 sequence (P43220 24-145): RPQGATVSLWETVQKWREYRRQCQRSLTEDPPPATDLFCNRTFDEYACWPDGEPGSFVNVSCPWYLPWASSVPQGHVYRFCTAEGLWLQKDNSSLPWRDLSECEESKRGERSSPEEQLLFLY
Text: DNA encoding each protein was transfected into CHO cells for expression. After expression, the proteins were purified by affinity chromatography (HIS-Trap Ni, Cytiva) followed by size exclusion chromatography using a HiLoad 26/600 Superdex 75pg column (Cytiva) with PBS buffer. […] Surface plasmon resonance measurements were made using a Biacore T200 (Cytiva) and analyzed using T200 Evaluation Software Version 3.1. Receptor ectodomain proteins were covalently immobilized (∼250 resonance units) on Sensor Chip CM4 BR100534 using the Amine coupling Immobilization Wizard in the Biacore T200 Control Software Version 2.0.2. Running buffer was HBS-EP (10 mM Hepes, 150 mM NaCl, 3 mM EDTA, 0.05% P20 [pH 7.6]; Teknova). Concentration series for each sample were made by serial dilution in running buffer. The samples were injected for 150 sec at a 30-µL/min flow rate, followed by 300 sec of dissociation. The surface was regenerated between samples with 10 mM glycine (pH 1.7).
Fig. S10. Receptor extracellular domain (ECD) binding affinity of peptides. Purified GIPR (left column) and GLP-1R (right column) extracellular domains were immobilized to biosensor […]
mM). […]
and efficacy (% Top) of ligands to induce Gα s -GTPγS binding and cAMP accumulation in HEK293 cells expressing GIPR were determined. The equilibrium affinity (KD) of ligands for the immobilized ectodomain of the GIPR were quantified by surface plasmon resonance. […]
as §9, §11
relative efficacy for NanoBRET assays. SPR data were analyzed using T200 evaluation software (Cytiva). […] ND, not determined. […]

[9] = efficacy (% Top), normalized to GIP(1-42), (SEM)
[10] = efficacy (% Top), normalized to GLP-1(7-36), (SEM)

Row | SMILES | pEC50 ([1]; diffusion-enhanced resonance energy transfer, SNAP-GLP-1R HEK293 cells, 37 °C, geometric mean (SEM, n)) | GLP-1R Internalization Top ([1]; efficacy (% Top), percent internalization compared to maximal GLP-1, (SEM)) | pEC50 ([2]; cAMP accumulation, HEK293 cells expressing GIPR, albumin-free, geometric mean (SEM, n)) | GIPR Low Density cAMP Top [2, 9] | pEC50 ([3]; Gαs-GTPγS binding, GLP-1R-expressing membranes, albumin-free, geometric mean (SEM, n), read-out: GLP-1R GTPγS Recruitment EC50) | GLP-1R GTPγS Recruitment Top [3, 10] | pEC50 ([4]; cAMP accumulation, HEK293 cells expressing GLP-1R, albumin-free, geometric mean (SEM, n)) | GLP-1R Low Density cAMP Top [4, 10] | pEC50 ([5]; Gαs-GTPγS binding, GIPR-expressing membranes, albumin-free, geometric mean (SEM, n), read-out: GIPR GTPγS Recruitment EC50) | GIPR GTPγS Recruitment Top [5, 9] | pEC50 ([6]; NanoBRET, transfected freestyle HEK cells, PBS with 0.1% casein, geometric mean (SEM, n)) | GLP-1R GRK2 Recruitment Top ([6]; efficacy (% Top), relative to maximal GLP-1, (SEM)) | GLP-1R β-Arr1 Recruitment Top [7] | GLP-1R ECD kinetic KD [8]
1 | CC[C@H](C)[C@H](NC(=O)[C@H](CC(C)C)NC(=O)[C@H](Cc1c[nH]c2ccccc12)NC(=O)[C@H](CCC(N)=O)NC(=O)[C@@H](NC(=O)[C@H](Cc1ccccc1)NC(=O)[C@H](C)NC(=O)[C@H](CCCCN)NC(=O)[C@H](CCC(N)=O)NC(=O)[C@H](C)NC(=O)[C@@H](NC(=O)[C@H](CCCCN)NC(=O)[C@H](CC(=O)O)NC(=O)[C@H](CC(C)C)NC(=O)C(C)(C)NC(=O)[C@@H](NC(=O)[C@H](CO)NC(=O)[C@H](Cc1ccc(O)cc1)NC(=O)[C@H](CC(=O)O)NC(=O)[C@H](CO)NC(=O)[C@@H](NC(=O)[C@H](Cc1ccccc1)NC(=O)[C@@H](NC(=O)CNC(=O)[C@H](CCC(=O)O)NC(=O)C(C)(C)NC(=O)[C@@H](N)Cc1c[nH]cn1)[C@@H](C)O)[C@@H](C)O)[C@@H](C)CC)[C@@H](C)CC)C(C)C)C(=O)N[C@@H](C)C(=O)NCC(=O)NCC(=O)N1CCC[C@H]1C(=O)N[C@@H](CO)C(=O)N[C@@H](CO)C(=O)NCC(=O)N[C@@H](C)C(=O)N1CCC[C@H]1C(=O)N1CCC[C@H]1C(=O)N1CCC[C@H]1C(=O)N[C@@H](CO)C(N)=O [Tzp ∆C20,Y1H] (H-H[Aib]EGTFTSDYSI[Aib]LDKIAQKAFVQWLIAGGPSSGAPPPS-NH2) | 8.67 | 101 (6) % | 9.17 | 80.9 (3.4) % | 9.62 | 88.9 (3.9) % | 9.79 | 111 (5) % | 9.56 | 31.4 (6.6) % | 8.51 | 84.2 (1.5 ) % | 74.6 (2.2) % | –
2 | CC[C@H](C)[C@H](NC(=O)[C@H](CO)NC(=O)[C@H](Cc1ccc(O)cc1)NC(=O)[C@H](CC(=O)O)NC(=O)[C@H](CO)NC(=O)[C@@H](NC(=O)[C@H](Cc1ccccc1)NC(=O)[C@@H](NC(=O)CNC(=O)[C@H](CCC(=O)O)NC(=O)[C@H](C)NC(=O)[C@@H](N)Cc1ccc(O)cc1)[C@@H](C)O)[C@@H](C)CC)C(=O)N[C@@H](C)C(=O)N[C@@H](CCSC)C(=O)N[C@@H](CC(=O)O)C(=O)N[C@@H](CCCCN)C(=O)N[C@H](C(=O)N[C@@H](Cc1c[nH]cn1)C(=O)N[C@@H](CCC(N)=O)C(=O)N[C@@H](CCC(N)=O)C(=O)N[C@@H](CC(=O)O)C(=O)N[C@@H](Cc1ccccc1)C(=O)N[C@H](C(=O)N[C@@H](CC(N)=O)C(=O)N[C@@H](Cc1c[nH]c2ccccc12)C(=O)N[C@@H](CC(C)C)C(=O)N[C@@H](CC(C)C)C(=O)N[C@@H](C)C(=O)N[C@@H](CCC(N)=O)C(=O)N[C@@H](CCCCN)C(=O)NCC(=O)N[C@@H](CCCCN)C(=O)N[C@@H](CCCCN)C(=O)N[C@@H](CC(N)=O)C(=O)N[C@@H](CC(=O)O)C(=O)N[C@@H](Cc1c[nH]c2ccccc12)C(=O)N[C@@H](CCCCN)C(=O)N[C@@H](Cc1c[nH]cn1)C(=O)N[C@@H](CC(N)=O)C(=O)N[C@H](C(=O)N[C@H](C(=O)N[C@@H](CCC(N)=O)C(N)=O)[C@@H](C)O)[C@@H](C)CC)C(C)C)[C@@H](C)CC [GIP, reference compound] | – | – | – | – | – | – | – | – | – | – | – | – | – | No kinetic fit possible
